Measurements taken from ChEMBL document CHEMBL1201861, “Genomics of Drug Sensitity in Cancer screening data, Wellcome Trust Sanger Institute”.

Tests used:
Assay in all cases: cells
DG-75 = format: functional, cell-based, Homo sapiens; settings: Homo sapiens, DG-75;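 further: growth inhibition of DG-75 cells, read out with a cell viability assay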
Description: SANGER: Inhibition of human DG-75 cell growth in a cell viability assay.

DMS-153 = format: functional, cell-based, Homo sapiens; settings: Homo sapiens, DMS-153
Description: SANGER: Inhibition of human DMS-153 cell growth in a cell viability assay.

DMS-273 = format: functional, cell-based; settings: Homo sapiens
Description: SANGER: Inhibition of human DMS-273 cell growth in a cell viability assay.

EB2 = format: functional, cell-based, Homo sapiens; settings: Homo sapiens, EB2;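 further: growth inhibition of EB2 cells, read out with a cell viability assay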
Description: SANGER: Inhibition of human EB2 cell growth in a cell viability assay.

FTC-133 = format: functional, cell-based; settings: Homo sapiens
G-402 = format: functional, cell-based; settings: Homo sapiens
Description: SANGER: Inhibition of human G-402 cell growth in a cell viability assay.

GCT = format: functional, cell-based; settings: Homo sapiens;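 further: GCT cell line proliferation inhibition, read out with a cell viability assay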
Description: SANGER: Inhibition of human GCT cell growth in a cell viability assay.

HCC1937 = format: functional, cell-based; settings: Homo sapiens;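 further: growth inhibition measured with a cell viability read-out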
Description: SANGER: Inhibition of human HCC1937 cell growth in a cell viability assay.

HCC 2998 = format: functional, cell-based; settings: Homo sapiens;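 further: growth inhibition of human HCC2998 cells, measured with a cell viability read-out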
Description: SANGER: Inhibition of human HCC2998 cell growth in a cell viability assay.

HCT-116 = format: functional, cell-based; settings: Homo sapiens
Description: SANGER: Inhibition of human HCT-116 cell growth in a cell viability assay.

HSC-2 = format: functional, cell-based; settings: Homo sapiens;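 further: growth inhibition of human HSC-2 cells, read out by a cell viability assay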
Description: SANGER: Inhibition of human HSC-2 cell growth in a cell viability assay.

HT-29 = format: functional, cell-based; settings: Homo sapiens;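 further: growth inhibition of human HT-29 cells, read out by a cell viability assay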
Description: SANGER: Inhibition of human HT-29 cell growth in a cell viability assay.

HuTu80 = format: functional, cell-based, Homo sapiens, HUTU-80; settings: Homo sapiens, HuTu80;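 further: growth inhibition of HuTu80 human cells, determined with a cell viability readout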
Description: SANGER: Inhibition of human HUTU-80 cell growth in a cell viability assay.

JEG-3 = format: functional, cell-based; settings: Homo sapiens;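 further: growth inhibition of human JEG-3 cells, read out with a cell viability assay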
Description: SANGER: Inhibition of human JEG-3 cell growth in a cell viability assay.

KMOE-2 = format: functional, cell-based, Homo sapiens; settings: Homo sapiens, KMOE-2;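 further: growth inhibition of human KMOE-2 cells, read out with a cell viability assay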
Description: SANGER: Inhibition of human KMOE-2 cell growth in a cell viability assay.

KYSE-140 = format: functional, cell-based; settings: Homo sapiens;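 further: cell viability assay measuring growth inhibition in human KYSE-140 cells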
Description: SANGER: Inhibition of human KYSE-140 cell growth in a cell viability assay.

KYSE-150 cell line = format: functional, cell-based; settings: Homo sapiens;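 further: growth inhibition of human KYSE-150 cells, read out with a cell viability assay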
Description: SANGER: Inhibition of human KYSE-150 cell growth in a cell viability assay.

KYSE-510 = format: functional, cell-based; settings: Homo sapiens;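 further: cell viability readout used to measure how strongly growth of the cell line is suppressed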
Description: SANGER: Inhibition of human KYSE-510 cell growth in a cell viability assay.

L-540 = format: functional, cell-based, Homo sapiens; settings: Homo sapiens, L-540;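 further: growth inhibition of the human L-540 cell line, read out with a viability assay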
Description: SANGER: Inhibition of human L-540 cell growth in a cell viability assay.

LB373-MEL-D = format: functional, cell-based, Homo sapiens; settings: Homo sapiens, LB373-MEL-D;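 further: growth inhibition of the cell line, read out in a cell viability assay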
Description: SANGER: Inhibition of human LB373-MEL-D cell growth in a cell viability assay.

LN-405 = format: functional, cell-based; settings: Homo sapiens
Description: SANGER: Inhibition of human LN-405 cell growth in a cell viability assay.

LP-1 = format: functional, cell-based, Homo sapiens; settings: Homo sapiens, LP-1;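 further: growth inhibition of human LP-1 cells, with the read-out taken from a cell viability assay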
Description: SANGER: Inhibition of human LP-1 cell growth in a cell viability assay.

LU-165 = format: functional, cell-based, Homo sapiens; settings: Homo sapiens, LU-165
Description: SANGER: Inhibition of human LU-165 cell growth in a cell viability assay.

ME-180 = format: functional, cell-based; settings: Homo sapiens;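 further: cell viability assay measuring growth inhibition of ME-180 cells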
Description: SANGER: Inhibition of human ME-180 cell growth in a cell viability assay.

MHH-CALL-2 = format: functional, cell-based, Homo sapiens; settings: Homo sapiens, MHH-CALL-2;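 further: growth inhibition of the cell line, read out in a cell viability assay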
Description: SANGER: Inhibition of human MHH-CALL-2 cell growth in a cell viability assay.

MKN-7 = format: functional, cell-based; settings: Homo sapiens;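 further: growth inhibition of MKN-7 cells, read out with a cell viability assay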
Description: SANGER: Inhibition of human MKN7 cell growth in a cell viability assay.

NCI-H1651 = format: functional, cell-based; settings: Homo sapiens;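 further: Read-out is a cell viability assay, with IC50 expressing inhibition of NCI-H1651 cell growth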
Description: SANGER: Inhibition of human NCI-H1651 cell growth in a cell viability assay.

NCI-H1793 = format: functional, cell-based; settings: Homo sapiens;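 further: cell growth inhibition, read out by a cell viability assay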
Description: SANGER: Inhibition of human NCI-H1793 cell growth in a cell viability assay.

NCI-H2030 = format: functional, cell-based; settings: Homo sapiens;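 further: growth inhibition of human NCI-H2030 cells, read out by a cell viability assay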
Description: SANGER: Inhibition of human NCI-H2030 cell growth in a cell viability assay.

NCI-H2122 = format: functional, cell-based; settings: Homo sapiens;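 further: growth inhibition of the cells, read out with a cell viability assay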
Description: SANGER: Inhibition of human NCI-H2122 cell growth in a cell viability assay.

NCI-H2452 = format: functional, cell-based; settings: Homo sapiens;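 further: growth inhibition of NCI-H2452 cells, read out with a cell viability assay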
Description: SANGER: Inhibition of human NCI-H2452 cell growth in a cell viability assay.

NCI-H596 = format: functional, cell-based; settings: Homo sapiens;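 further: growth inhibition of NCI-H596 cells, read out with a cell viability assay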
Description: SANGER: Inhibition of human NCI-H596 cell growth in a cell viability assay.

NCI-H661 = format: functional, cell-based; settings: Homo sapiens;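 further: cell viability assay read-out, IC50 being the concentration that inhibits growth of the cells by half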
Description: SANGER: Inhibition of human NCI-H661 cell growth in a cell viability assay.

PA-1 = format: functional, cell-based; settings: Homo sapiens;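 further: IC50 for suppression of PA-1 cell proliferation, determined with a cell viability read-out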
Description: SANGER: Inhibition of human PA-1 cell growth in a cell viability assay.

SIG-M5 = format: functional, cell-based, Homo sapiens; settings: Homo sapiens, SIG-M5;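 further: cell viability assay read-out, measuring how strongly growth of cultured human SIG-M5 cells is inhibited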
Description: SANGER: Inhibition of human SIG-M5 cell growth in a cell viability assay.

SK-HEP1 = format: functional, cell-based, SK-HEP-1; settings: Homo sapiens;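 further: cell viability readout used to quantify reduction in proliferation of human SK-HEP-1 cells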
Description: SANGER: Inhibition of human SK-HEP-1 cell growth in a cell viability assay.

SK-MEL-24 = format: functional, cell-based; settings: Homo sapiens;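 further: growth inhibition read out by a cell viability assay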
Description: SANGER: Inhibition of human SK-MEL-24 cell growth in a cell viability assay.

SNU-C1 = format: functional, cell-based, Homo sapiens; settings: Homo sapiens, SNU-C1;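 further: growth inhibition of SNU-C1 human cells, read out by a cell viability assay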
Description: SANGER: Inhibition of human SNU-C1 cell growth in a cell viability assay.

SR = format: functional, cell-based, Homo sapiens; settings: Homo sapiens, SR
Description: SANGER: Inhibition of human SR cell growth in a cell viability assay.

SW13 = format: functional, cell-based; settings: Homo sapiens;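 further: IC50 is inhibition of SW13 cell growth, read out with a cell viability assay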
Description: SANGER: Inhibition of human SW13 cell growth in a cell viability assay.

SW1573 = format: functional, cell-based; settings: Homo sapiens;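 further: growth inhibition of SW1573 cells, read out with a cell viability assay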
Description: SANGER: Inhibition of human SW1573 cell growth in a cell viability assay.

SW1783 = format: functional, cell-based; settings: Homo sapiens;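 further: cell growth inhibition measured with a viability assay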
Description: SANGER: Inhibition of human SW1783 cell growth in a cell viability assay.

786-0 = format: functional, cell-based; settings: Homo sapiens
Description: SANGER: Inhibition of human 786-0 cell growth in a cell viability assay.

A2780 = format: functional, cell-based; settings: Homo sapiens;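 further: growth inhibition of A2780 cells, read out with a cell viability assay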
Description: SANGER: Inhibition of human A2780 cell growth in a cell viability assay.

A-375 = format: functional, cell-based; settings: Homo sapiens;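 further: growth inhibition of A375 cells, read out with a cell viability assay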
Description: SANGER: Inhibition of human A375 cell growth in a cell viability assay.

A673 = format: functional, cell-based; settings: Homo sapiens;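 further: growth inhibition of human A673 cells, read out through a cell viability assay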
Description: SANGER: Inhibition of human A673 cell growth in a cell viability assay.

ABC-1 = format: functional, cell-based; settings: Homo sapiens;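 further: growth inhibition of human ABC-1 cells, read out by a cell viability assay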
Description: SANGER: Inhibition of human ABC-1 cell growth in a cell viability assay.

BPH-1 = format: functional, cell-based; settings: Homo sapiens;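 further: cell viability assay measuring growth inhibition of human BPH-1 cells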
Description: SANGER: Inhibition of human BPH-1 cell growth in a cell viability assay.

BXPC-3 = format: functional, cell-based; settings: Homo sapiens;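 further: growth inhibition of human BxPC-3 cells, read out by a cell viability assay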
Description: SANGER: Inhibition of human BxPC-3 cell growth in a cell viability assay.

C-33-A = format: functional, cell-based; settings: Homo sapiens;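 further: cell viability assay measuring growth inhibition of C-33-A cells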
Description: SANGER: Inhibition of human C-33-A cell growth in a cell viability assay.

CA46 = format: functional, cell-based, Homo sapiens; settings: Homo sapiens, CA46;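 further: growth inhibition of human CA46 cells, read out by a cell viability assay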
Description: SANGER: Inhibition of human CA46 cell growth in a cell viability assay.

CAL-33 = format: functional, cell-based; settings: Homo sapiens;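 further: growth inhibition of CAL-33 cells, read out with a cell viability assay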
Description: SANGER: Inhibition of human CAL-33 cell growth in a cell viability assay.

CAL-51 = format: functional, cell-based; settings: Homo sapiens;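 further: human CAL-51 cell line, growth inhibition read out via a cell viability assay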
Description: SANGER: Inhibition of human CAL-51 cell growth in a cell viability assay.

CAL-54 = format: functional, cell-based; settings: Homo sapiens;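 further: growth inhibition of CAL-54 cells, read out by a viability measurement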
Description: SANGER: Inhibition of human CAL-54 cell growth in a cell viability assay.

CAL-85-1 = format: functional, cell-based; settings: Homo sapiens;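 further: growth inhibition of human CAL-85-1 cells, read out with a cell viability assay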
Description: SANGER: Inhibition of human CAL-85-1 cell growth in a cell viability assay.

THP-1 = format: functional, cell-based, Homo sapiens; settings: Homo sapiens, THP-1;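 further: growth inhibition of THP-1 cells, read out via a cell viability assay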
Description: SANGER: Inhibition of human THP-1 cell growth in a cell viability assay.

UMUC3 = format: functional, cell-based; settings: Homo sapiens
Description: SANGER: Inhibition of human UM-UC-3 cell growth in a cell viability assay.

VM-CUB-1 = format: functional, cell-based; settings: Homo sapiens
Description: SANGER: Inhibition of human VM-CUB-1 cell growth in a cell viability assay.

YKG-1 = format: functional, cell-based; settings: Homo sapiens
Description: SANGER: Inhibition of human YKG-1 cell growth in a cell viability assay.

YT = format: functional, cell-based, Homo sapiens; settings: Homo sapiens, YT
Description: SANGER: Inhibition of human YT cell growth in a cell viability assay.

For O=S(=O)(O)c1ccc2cc(/N=N/c3cc(S(=O)(=O)O)c4cccnc4c3O)ccc2c1, the IC50 (DG-75) was greater than 16 µM, the IC50 (DMS-153) was greater than 16 µM and the IC50 (DMS-273) was greater than 16 µM. The IC50 (EB2) was greater than 16 µM, the IC50 (FTC-133) was greater than 16 µM and the IC50 (G-402) was greater than 16 µM. The IC50 (GCT) was greater than 16 µM, the IC50 (HCC1937) was greater than 16 µM and the IC50 (HCC 2998) was greater than 16 µM. The IC50 (HCT-116) was greater than 16 µM, the IC50 (HSC-2) was greater than 16 µM and the IC50 (HT-29) was greater than 16 µM. It also gave an IC50 (HuTu80) greater than 16 µM, an IC50 (JEG-3) greater than 16 µM and an IC50 (KMOE-2) greater than 16 µM. The IC50 (KYSE-140) was greater than 16 µM, the IC50 (KYSE-150 cell line) was greater than 16 µM and the IC50 (KYSE-510) was greater than 16 µM. For the same compound, the IC50 (L-540) was greater than 16 µM, the IC50 (LB373-MEL-D) was greater than 16 µM and the IC50 (LN-405) was greater than 16 µM. For the same compound, the IC50 (LP-1) was greater than 16 µM, the IC50 (LU-165) was greater than 16 µM and the IC50 (ME-180) was greater than 16 µM. For the same compound, the IC50 (MHH-CALL-2) was greater than 16 µM, the IC50 (MKN-7) was greater than 16 µM and the IC50 (NCI-H1651) was greater than 16 µM. It also gave an IC50 (NCI-H1793) greater than 16 µM, an IC50 (NCI-H2030) greater than 16 µM and an IC50 (NCI-H2122) greater than 16 µM. The IC50 (NCI-H2452) was greater than 16 µM, the IC50 (NCI-H596) was greater than 16 µM and the IC50 (NCI-H661) was greater than 16 µM. It also gave an IC50 (PA-1) greater than 16 µM, an IC50 (SIG-M5) greater than 16 µM and an IC50 (SK-HEP1) greater than 16 µM. For the same compound, the IC50 (SK-MEL-24) was greater than 16 µM, the IC50 (SNU-C1) was greater than 16 µM and the IC50 (SR) was greater than 16 µM. For the same compound, the IC50 (SW13) was greater than 16 µM, the IC50 (SW1573) was greater than 16 µM and the IC50 (SW1783) was greater than 16 µM. It also gave an IC50 (786-0) of 5.59 µM, an IC50 (A2780) greater than 16 µM and an IC50 (A-375) greater than 16 µM. It also gave an IC50 (A673) greater than 16 µM, an IC50 (ABC-1) greater than 16 µM and an IC50 (BPH-1) greater than 16 µM. It also gave an IC50 (BXPC-3) greater than 16 µM, an IC50 (C-33-A) greater than 16 µM and an IC50 (CA46) greater than 16 µM. For the same compound, the IC50 (CAL-33) was greater than 16 µM, the IC50 (CAL-51) was 9.36 µM and the IC50 (CAL-54) was greater than 16 µM. For the same compound, the IC50 (CAL-85-1) was greater than 16 µM, the IC50 (THP-1) was greater than 16 µM and the IC50 (UMUC3) was greater than 16 µM. It also gave an IC50 (VM-CUB-1) greater than 16 µM, an IC50 (YKG-1) greater than 16 µM and an IC50 (YT) greater than 16 µM.
OC[C@H](Cc1ccccc1)Nc1nc(Oc2ccc3c(c2)CCC3)nc2c1ncn2Cc1ccc(-c2ccccc2)cc1 was tested, and the IC50 (DG-75) was greater than 10.2 µM, the IC50 (DMS-153) was greater than 10.2 µM and the IC50 (DMS-273) was greater than 10.2 µM. It also gave an IC50 (EB2) greater than 10.2 µM, an IC50 (FTC-133) greater than 10.2 µM and an IC50 (G-402) greater than 10.2 µM. The IC50 (GCT) was greater than 10.2 µM, the IC50 (HCC1937) was greater than 10.2 µM and the IC50 (HCC 2998) was greater than 10.2 µM. For the same compound, the IC50 (HCT-116) was greater than 10.2 µM, the IC50 (HSC-2) was greater than 10.2 µM and the IC50 (HT-29) was 8.45 µM. It also gave an IC50 (HuTu80) of 1.31 µM, an IC50 (JEG-3) greater than 10.2 µM and an IC50 (KMOE-2) greater than 10.2 µM. It also gave an IC50 (KYSE-140) of 7.49 µM, an IC50 (KYSE-150 cell line) of 9.34 µM and an IC50 (KYSE-510) of 3.45 µM. It also gave an IC50 (L-540) greater than 10.2 µM, an IC50 (LB373-MEL-D) greater than 10.2 µM and an IC50 (LN-405) greater than 10.2 µM. It also gave an IC50 (LP-1) greater than 10.2 µM, an IC50 (LU-165) greater than 10.2 µM and an IC50 (ME-180) greater than 10.2 µM. For the same compound, the IC50 (MHH-CALL-2) was greater than 10.2 µM, the IC50 (MKN-7) was greater than 10.2 µM and the IC50 (NCI-H1651) was greater than 10.2 µM. The IC50 (NCI-H1793) was greater than 10.2 µM, the IC50 (NCI-H2030) was 5.25 µM and the IC50 (NCI-H2122) was 2.72 µM. The IC50 (NCI-H2452) was greater than 10.2 µM, the IC50 (NCI-H596) was greater than 10.2 µM and the IC50 (NCI-H661) was greater than 10.2 µM. For the same compound, the IC50 (PA-1) was greater than 10.2 µM, the IC50 (SIG-M5) was 0.654 µM and the IC50 (SK-HEP1) was 10.1 µM. For the same compound, the IC50 (SK-MEL-24) was greater than 10.2 µM, the IC50 (SNU-C1) was 4.22 µM and the IC50 (SR) was greater than 10.2 µM. The IC50 (SW13) was greater than 10.2 µM, the IC50 (SW1573) was greater than 10.2 µM and the IC50 (SW1783) was greater than 10.2 µM. The IC50 (786-0) was 1.26 µM, the IC50 (A2780) was greater than 10.2 µM and the IC50 (A-375) was 6.87 µM. For the same compound, the IC50 (A673) was greater than 10.2 µM, the IC50 (ABC-1) was greater than 10.2 µM and the IC50 (BPH-1) was greater than 10.2 µM. It also gave an IC50 (BXPC-3) greater than 10.2 µM, an IC50 (C-33-A) greater than 10.2 µM and an IC50 (CA46) greater than 10.2 µM. It also gave an IC50 (CAL-33) greater than 10.2 µM, an IC50 (CAL-51) of 2.23 µM and an IC50 (CAL-54) greater than 10.2 µM. The IC50 (CAL-85-1) was 4.45 µM, the IC50 (THP-1) was greater than 10.2 µM and the IC50 (UMUC3) was greater than 10.2 µM. The IC50 (VM-CUB-1) was greater than 10.2 µM, the IC50 (YKG-1) was 7.11 µM and the IC50 (YT) was greater than 10.2 µM.
